Assays:
[1] = HILIC, Waters ACQUITY UPLC BEH Amide, 150 × 2.1 mm, 1.7 µm, 40 °C, 0.5 mL/min, estimated dead time 0.66 min; A: 5% water + 95% acetonitrile; B: 70% water + 30% acetonitrile + 10 mM ammonium formate, pH 6.5; gradient (min/%B) 0/0 2/0 20/70 23/70 24/0 31/0; details: stereoisomer not certain
[2] = HILIC, Merck SeQuant ZIC-pHILIC, 150 × 2.1 mm, 5 µm, 40 °C, 0.3 mL/min, estimated dead time 1.1 min; A: acetonitrile; B: water + 2.8 mM ammonium formate, pH 9; gradient (min/%B) 0/5 1/5 10/51 13/51 13.1/5 20/5; details: stereoisomer not certain

Compound	LC retention time [1]	LC retention time [2]
C[n+]1cccc(C(N)=O)c1 [1-METHYLNICOTINAMIDE]	8.27 min	–
COc1cc(CCN)ccc1O [3-METHOXYTYRAMINE]	0.84 min	–
Cn1cnc(=N)c2[nH]cnc21 [3-METHYLADENINE]	5.66 min	–
Cn1cncc1CCN [3-METHYLHISTAMINE]	9.57 min	–
NC(CS(=O)O)C(=O)O (stereo unspecified) [3-SULFINOALANINE]	–	8.64 min
O=C(O)C(O)C(O)C(O)C(O)COP(=O)(O)O (stereo unspecified) [6-PHOSPHOGLUCONATE]	–	10.3 min
NCCP(=O)(O)O [(2-AMINOETHYL)PHOSPHONATE]	–	9.6 min
O=C1OC(C(O)CO)C(O)=C1O (stereo unspecified) [ASCORBATE]	–	8.49 min
O=C(O)c1ccccc1 [BENZOATE]	–	1.41 min
O=P(O)(O)OC(CO)CO [BETA-GLYCEROPHOSPHATE]	–	8.57 min
CC(C)(COP(=O)(O)OP(=O)(O)OCC1OC(n2cnc3c(N)ncnc32)C(O)C1OP(=O)(O)O)C(O)C(=O)NCCC(=O)NCCS (stereo unspecified) [COENZYME A]	–	9.12 min
NC(CCSCC(N)C(=O)O)C(=O)O (stereo unspecified) [CYSTATHIONINE]	–	10.3 min
NC(CS)C(=O)O (stereo unspecified) [CYSTEINE]	–	10.2 min
NC(CSSCC(N)C(=O)O)C(=O)O (stereo unspecified) [CYSTINE]	–	10.3 min
Nc1ccn(C2OC(COP(=O)(O)OP(=O)(O)O)C(O)C2O)c(=O)n1 (stereo unspecified) [CYTIDINE DIPHOSPHATE]	–	10.2 min
Nc1ccn(C2OC(COP(=O)(O)OP(=O)(O)OP(=O)(O)O)C(O)C2O)c(=O)n1 (stereo unspecified) [CYTIDINE TRIPHOSPHATE]	–	11.1 min
C[C@@H](N)C(=O)O [D-ALANINE]	–	5.74 min
O=P(O)(O)OCC1OC(O)C(O)C1O [D-RIBOSE 5-PHOSPHATE]	–	9.19 min
Nc1ncnc2c1ncn2C1CC(O)C(COP(=O)(O)OP(=O)(O)OP(=O)(O)O)O1 (stereo unspecified) [DEOXYADENOSINE TRIPHOSPHATE]	–	10.2 min
Nc1nc2c(ncn2C2CC(O)C(COP(=O)(O)OP(=O)(O)O)O2)c(=O)[nH]1 (stereo unspecified) [DGDP]	–	10.2 min

Compound	LC retention time [1]	LC retention time [2]
CNCC(O)c1ccc(O)c(O)c1 (stereo unspecified) [EPINEPHRINE]	–	2.03 min
NCCOP(=O)(O)O [ETHANOLAMINE PHOSPHATE]	–	9.23 min
NC(C(=O)O)C(O)C(O)C(O)CO (stereo unspecified) [GLUCOSAMINATE]	–	9.91 min
NC(CCC(=O)O)C(=O)O (stereo unspecified) [GLUTAMATE]	–	8.69 min
O=CC(O)COP(=O)(O)O (stereo unspecified) [GLYCERALDEHYDE 3-PHOSPHATE]	–	6.24 min
Nc1nc2c(ncn2C2OC(COP(=O)(O)OP(=O)(O)O)C(O)C2O)c(=O)[nH]1 (stereo unspecified) [GUANOSINE DIPHOSPHATE]	–	10.5 min
NC(CCS)C(=O)O (stereo unspecified) [HOMOCYSTEINE]	–	9.91 min
NC(CCSSCCC(N)C(=O)O)C(=O)O (stereo unspecified) [HOMOCYSTINE]	–	9.92 min
O=c1[nH]cnc2c1ncn2C1OC(COP(=O)([O-])OP(=O)([O-])O)C(O)C1O (stereo unspecified) [INOSINE 5'-DIPHOSPHATE]	–	9.98 min
O=C(O)CC(C(=O)O)C(O)C(=O)O (stereo unspecified) [ISOCITRATE]	–	10.5 min
CC(O)C(=O)O (stereo unspecified) [LACTATE]	–	1.54 min
CS(=N)(=O)CCC(N)C(=O)O (stereo unspecified) [METHIONINE SULFOXIMINE]	–	9.03 min
CC(=O)NC1C(O)CC(O)(C(=O)O)OC1C(O)C(O)CO (stereo unspecified) [N-ACETYLNEURAMINATE]	–	8.33 min
NC(=O)C1=CN(C2OC(COP(=O)(O)OP(=O)(O)OCC3OC(n4cnc5c(N)ncnc54)C(OP(=O)(O)O)C3O)C(O)C2O)C=CC1 (stereo unspecified) [NADPH]	–	10.1 min
CCCCCCCCC(=O)[O-] [NONANOATE]	–	5.16 min
O=C(O)CCC(=O)C(=O)O [OXOGLUTARATE]	–	9.21 min
O=C([O-])c1ccccn1 [PICOLINATE]	–	6.41 min
O=C(O)c1ccccc1O [SALICYLATE]	–	1.91 min
OCC1OC(OCC2OC(OCC3OC(OC4(CO)OC(CO)C(O)C4O)C(O)C(O)C3O)C(O)C(O)C2O)C(O)C(O)C1O (stereo unspecified) [STACHYOSE]	–	10.1 min
OC1COC(O)C(O)C1O (stereo unspecified) [XYLOSE]	–	8.34 min

Results, then the compound that gave them:

LC retention time [1]	LC retention time [2]	Compound
0.99 min	–	CC12CCC(O)CC1CCC1C2C(O)CC2(C)C1CCC2(O)C(=O)CO (stereo unspecified)
1.56 min	–	O=c1cccc[nH]1 [2-HYDROXYPYRIDINE]
–	2.13 min	C=CC(=O)[O-] [2-PROPENOATE]
–	9.96 min	CC(O)(CC(=O)O)CC(=O)SCCNC(=O)CCNC(=O)C(O)C(C)(C)COP(=O)(O)OP(=O)(O)OCC1OC(n2cnc3c(N)ncnc32)C(O)C1OP(=O)(O)O (stereo unspecified) [3-HYDROXY-3-METHYLGLUTARYL-COA]
1.37 min	–	CC(O)CC(=O)[O-] (stereo unspecified) [3-HYDROXYBUTANOATE]
0.84 min	–	CC1C(=O)Nc2ccccc21 (stereo unspecified) [3-METHYL-2-OXINDOLE]
–	7.95 min	CC(C)=CC(=O)SCCNC(=O)CCNC(=O)C(O)C(C)(C)COP(=O)(O)OP(=O)(O)OCC1OC(n2cnc3c(N)ncnc32)C(O)C1OP(=O)(O)O (stereo unspecified) [3-METHYLCROTONYL-COA]
–	10.1 min	O=C(O)C(O)COP(=O)(O)O (stereo unspecified) [3-PHOSPHOGLYCERATE]
–	9.02 min	N[C@H](C(=O)O)c1ccc(O)cc1 [4-HYDROXY-L-PHENYLGLYCINE]
–	9.28 min	NCC(=O)CCC(=O)O [5-AMINOLEVULINATE]
10.4 min	–	NCCCCC(=O)O [5-AMINOPENTANOATE]
–	9.46 min	Nc1ncnc2c1ncn2C1OC(COP(=O)(O)OP(=O)(O)O)C(O)C1O (stereo unspecified) [ADENOSINE 5'-DIPHOSPHATE]
–	9.14 min	Nc1ncnc2c1ncn2C1OC(COP(=O)(O)OP(=O)(O)OCC2OC(O)C(O)C2O)C(O)C1O (stereo unspecified) [ADENOSINE DIPHOSPHATE RIBOSE]
–	9.12 min	Nc1ncnc2c1ncn2C1OC(COP(=O)(O)OP(=O)(O)OC2OC(CO)C(O)C(O)C2O)C(O)C1O (stereo unspecified) [ADP-GLUCOSE]
–	9.33 min	NCCOP(=O)(O)OP(=O)(O)OCC1OC(n2ccc(N)nc2=O)C(O)C1O (stereo unspecified) [CDP-ETHANOLAMINE]
–	8.8 min	NC(CS)C(=O)NCC(=O)O (stereo unspecified) [CYS-GLY]
–	8.06 min	Nc1ccn(C2OC(CO)C3OP(=O)(O)OC32)c(=O)n1 (stereo unspecified) [CYTIDINE 2',3'-CYCLIC PHOSPHATE]
–	9.8 min	Nc1ccn(C2CC(O)C(COP(=O)([O-])OP(=O)([O-])[O-])O2)c(=O)n1 (stereo unspecified) [DEOXYCYTIDINE-DIPHOSPHATE]
–	10.5 min	O=c1ccn(C2CC(O)C(COP(=O)(O)OP(=O)(O)OP(=O)(O)O)O2)c(=O)[nH]1 (stereo unspecified) [DEOXYURIDINE TRIPHOSPHATE]
–	11.1 min	Nc1nc2c(ncn2C2CC(O)C(COP(=O)(O)OP(=O)(O)OP(=O)(O)O)O2)c(=O)[nH]1 (stereo unspecified) [DGTP]
–	10.5 min	NC(CCCC(N)C(=O)O)C(=O)O (stereo unspecified) [DIAMINOPIMELATE]
–	8.81 min	Nc1nc2c(c(=O)[nH]1)N=C(CNc1ccc(C(=O)NC(CCC(=O)O)C(=O)O)cc1)CN2 (stereo unspecified) [DIHYDROFOLATE]
–	9.3 min	O=C(CO)C(O)C(O)C(O)COP(=O)(O)O (stereo unspecified) [FRUCTOSE 6-PHOSPHATE]

LC retention time [1]	LC retention time [2]	Compound
–	10.9 min	O=P(O)(O)OCC1OC(O)(COP(=O)(O)O)C(O)C1O (stereo unspecified) [FRUCTOSE BISPHOSPHATE]
–	8.32 min	CC(C)=CCCC(C)=CCOP(=O)(O)OP(=O)(O)O [GERANYL-PP]
–	8.5 min	O=C(O)C(O)C(O)C(O)C(O)CO (stereo unspecified) [GLUCONATE]
–	10.2 min	NC1C(O)OC(COP(=O)(O)O)C(O)C1O (stereo unspecified) [GLUCOSAMINE 6-PHOSPHATE]
–	7.98 min	O=C(O)C(O)CO (stereo unspecified) [GLYCERATE]
–	8.79 min	O=P(O)(O)OCC(O)CO (stereo unspecified) [GLYCEROL 3-PHOSPHATE]
–	10.2 min	Nc1nc2c(ncn2C2OC(COP(=O)(O)OP(=O)(O)OC3OC(CO)C(O)C(O)C3O)C(O)C2O)c(=O)[nH]1 (stereo unspecified) [GUANOSINE DIPHOSPHATE MANNOSE]
–	11.5 min	Nc1nc2c(ncn2C2OC(COP(=O)(O)OP(=O)(O)OP(=O)(O)O)C(O)C2O)c(=O)[nH]1 (stereo unspecified) [GUANOSINE TRIPHOSPHATE]
–	8.8 min	NCCS(=O)O [HYPOTAURINE]
–	5.17 min	O=C(O)C(=O)Cc1c[nH]c2ccccc12 [INDOLE-3-PYRUVATE]
–	11 min	O=c1[nH]cnc2c1ncn2C1OC(COP(=O)(O)OP(=O)(O)OP(=O)(O)O)C(O)C1O (stereo unspecified) [INOSINE TRIPHOSPHATE]
–	8.52 min	C=C(C)CCOP(=O)(O)OP(=O)(O)O [ISOPENTENYL PYROPHOSPHATE]
–	1.47 min	COC(=O)c1ccc(O)c(OC)c1 [METHYL VANILLATE]
–	6.48 min	CCOC(=O)CC(=O)[O-] [MONOETHYLMALONATE]
–	2.02 min	CN(C)C(N)=NCCCC(N)C(=O)O (stereo unspecified) [N,N-DIMETHYL-ARGININE]
–	8.76 min	CC(=O)NC(CCCCN)C(=O)O (stereo not drawn) [N-ALPHA-ACETYLLYSINE]
–	8.87 min	O=C(O)CCCC(=O)C(=O)O [OXOADIPATE]
–	8.8 min	OCC1OC(OCC2OC(O)(CO)C(O)C2O)C(O)C(O)C1O (stereo unspecified) [PALATINOSE]
–	8.1 min	O=C(O)C1(O)CC(O)C(O)C(O)C1 (stereo unspecified) [QUINATE]
–	9.56 min	OCC1OC(OCC2OC(OC3(CO)OC(CO)C(O)C3O)C(O)C(O)C2O)C(O)C(O)C1O (stereo unspecified) [RAFFINOSE]
–	10.5 min	O=C(O)C=C(CC(=O)O)C(=O)O [TRANS-ACONITATE]
–	11 min	O=C(O)C1OC(OP(=O)(O)OP(=O)(O)OCC2OC(n3ccc(=O)[nH]c3=O)C(O)C2O)C(O)C(O)C1O (stereo unspecified) [URIDINE DIPHOSPHATE GLUCURONIC ACID]
–	8.67 min	O=c1ccn(C2OC(COP(=O)(O)O)C(O)C2O)c(=O)[nH]1 (stereo unspecified) [URIDINE MONOPHOSPHATE]

Reference: the RepoRT retention time repository (doi:10.1016/j.chroma.2019.01.023)
